In paper PMC10525927, “First Generation of Antioxidant Precursors for Bioisosteric Se-NSAIDs: Design, Synthesis, and In Vitro and In Vivo Anticancer Evaluation” (Antioxidants, 2023):

Legend:
Format in all cases: cell-based
[1] = tested on: DU-145 prostate cancer cells; assay: MTT cell viability assay, DU-145; conditions: mean ± SD; for GI50 / LD50 DU-145 / TGI DU-145: Table S1; for TGI DU-145: in vitro TGI concentration
Experimental: (§1) The cell lines were purchased from the American Type Culture Collection (ATCC). The cancer cell lines DU-145, PC-3, T-47D, MDA-MB-231, H1299, and A549, and the non-tumorigenic cells (184B5 and BEAS-2B), were maintained in RPMI 1640 medium (Gibco, Alcobendas, Madrid, Spain) supplemented with 10% fetal bovine serum (FBS; Gibco) and 1% antibiotics (10.00 units/mL penicillin and 10.00 mg/mL streptomycin; Gibco). Colon cancer cells HT-29 and HCT-116 were cultured in McCoy’s 5A medium (Gibco) supplemented with 10% fetal bovine serum (FBS; Gibco) and 1% antibiotics (10.00 units/mL penicillin and 10.00 mg/mL streptomycin; Gibco). Cells were maintained in tissue culture flasks at 37 °C and 5% CO2. The culture medium was replaced every three days.
(§2) The antiproliferative activity and selectivity in vitro of the Se-NSAID derivatives were determined by the (3-(4,5-dimethylthiazol-2-yl)-2,5-diphenyltetrazolium bromide) (MTT) assay. Compounds were dissolved in DMSO at a concentration of 0.01 M and serial dilutions were prepared. The Se-NSAID derivatives were tested at seven concentrations ranging between 1 and 100 µM in the colon (HT-29 and HCT-116), prostate (DU-145 and PC-3), breast (MDA-MB-231 and T-47D), and lung (H1299 and A549) cancer cell lines. The non-tumorigenic breast (184B5) and lung (BEAS-2B) cell lines were also tested to assess the selectivity of the compounds following the same procedure. A total of 1 × 10^4 cells were seeded per well in 96-well plates and incubated at 5% CO2 and 37 °C for 24 h. Then, cells were treated with either DMSO or increasing concentrations of the corresponding Se-NSAID derivatives for 48 h. A volume of 20 µL of MTT (5 mg/mL) was added to each well 2.5 h before the termination point. At the end of the experiment, the medium was removed, and the resultant formazan crystals formed by mitochondrial reduction of MTT were dissolved in 50 µL of DMSO. Absorbance was measured at 550 nm. IC50, GI50, TGI, and LC50 values were calculated using OriginPro version 8.5.1. software by nonlinear curve fitting. Selectivity indexes (SI) were calculated as the ratio of the IC50 values determined for the nonmalignant and the tumoral cells in the breast (IC50 (184B5)/IC50 (MDA-MB-231) and IC50 (184B5)/IC50 (T-47D)) and lung (IC50 (BEAS-2B)/IC50 (H1299) and IC50 (BEAS-2B)/IC50 (A549)) cell lines. Data were obtained from at least three independent experiments performed in triplicates.

[2] = tested on: MDA-MB-231 breast cancer cells; assay: MTT cell viability assay, MDA-MB-231; conditions: mean ± SD; for IC50 / GI50: Homo sapiens, MDA-MB-231, 48 h; for GI50 / TGI MDA-MB-231: Table S1; for TGI MDA-MB-231: in vitro TGI concentration, 48 h
Experimental: as §1, §2

[3] = tested on: 184B5 non-tumorigenic breast (mammary gland) cells; assay: MTT cell viability assay, 184B5; conditions: mean ± SD; for TGI 184B5: in vitro TGI concentration
Experimental: as §1, §2

A549 lung cancer cells = assay: MTT cell viability assay, A549; conditions: mean ± SD
Experimental: as §1, §2

[4] = tested on: panel of eight cancer cell lines; assay: MTT cell viability assay, statements on the whole panel; conditions: 48 h
Experimental: as §1, §2

[5] = tested on: T-47D breast cancer cells; assay: MTT cell viability assay, T-47D; conditions: 48 h, mean ± SD; for IC50 / GI50: Homo sapiens, T47D; for GI50 / TGI T-47D / LD50 T-47D: Table S1; for TGI T-47D: in vitro TGI concentration
Experimental: as §1, §2

[6] = tested on: HCT-116 colon cancer cells; assay: MTT cell viability assay, HCT-116; conditions: mean ± SD; for TGI HCT-116: in vitro TGI concentration
Experimental: as §1, §2

HT-29 colon cancer cells = assay: MTT cell viability assay, HT-29; conditions: mean ± SD; for IC50 / GI50: Homo sapiens, HT-29, 48 h
Experimental: as §1, §2

[7] = tested on: PC-3 prostate cancer cells; assay: MTT cell viability assay, PC-3; conditions: 48 h, mean ± SD; for GI50 / LD50 PC-3 / TGI PC-3: Table S1; for TGI PC-3: in vitro TGI concentration
Experimental: as §1, §2

H1299 lung cancer cells = assay: MTT cell viability assay, H1299; conditions: mean ± SD
Experimental: as §1, §2

[8] = tested on: BEAS-2B non-tumorigenic lung (bronchial epithelium) cells; assay: MTT cell viability assay, BEAS-2B; conditions: 48 h, mean ± SD; for GI50 / LD50 BEAS-2B / TGI BEAS-2B: Table S1; for TGI BEAS-2B: in vitro TGI concentration
Experimental: as §1, §2

[9] = 48 h, nonmalignant breast cells
[10] = Homo sapiens, 184B5, 48 h, Table S1
[11] = Homo sapiens, 184B5, 48 h, nonmalignant breast cells
[12] = Homo sapiens, A549, 48 h, Table S1
[13] = Homo sapiens, HCT-116, 48 h, Table S1
[14] = Homo sapiens, NCI-H1299, 48 h, Table S1
[15] = Homo sapiens, BEAS-2B, nonmalignant lung cells
[16] = in vitro TGI concentration, 48 h, Table S1

## COc1ccc2c(c1)c(CC(=O)[Se][Se]C(=O)Cc1c(C)n(C(=O)c3ccc(Cl)cc3)c3ccc(OC)cc13)c(C)n2C(=O)c1ccc(Cl)cc1 [Compound 2, 2-(1-(4-Chlorobenzoyl)-5-methoxy-2-methyl-1H-indol-3-yl)acetic diselenoperoxyanhydride]
[1]; Homo sapiens, DU-145, 48 h
  IC50: > 50 µM
  GI50: 58.4 ± 8.4 µM
[2]
  IC50: > 50 µM
  GI50: 23.1 ± 14.3 µM
[3]; [9]
  IC50 184B5: completely inactive
[3]; [10]
  GI50: > 100 µM
[3]; [11]
  IC50: > 100 µM
A549 lung cancer cells; Homo sapiens, A549, 48 h
  IC50: > 50 µM
A549 lung cancer cells; [12]
  GI50: > 100 µM
[4]; result in words
  antiproliferative activity against all the eight cell lines: no activity
[5]
  IC50: > 50 µM
  GI50: 25.5 ± 10.2 µM
  TGI T-47D: 39.0 ± 8.5 µM
[6]; Homo sapiens, HCT-116, 48 h
  IC50: > 50 µM
[6]; [13]
  GI50: 44.5 ± 3.4 µM
[6]; 48 h, Table S1
  TGI HCT-116: 81.5 ± 2.3 µM
HT-29 colon cancer cells
  IC50: > 50 µM
HT-29 colon cancer cells; Table S1
  GI50: > 100 µM
[7]
  IC50: > 50 µM
  GI50: > 100 µM
H1299 lung cancer cells; Homo sapiens, NCI-H1299, 48 h
  IC50: > 50 µM
H1299 lung cancer cells; [14]
  GI50: 53.2 ± 1.2 µM
[8]; nonmalignant lung cells
  IC50 BEAS-2B: completely inactive
[8]; Homo sapiens, BEAS-2B
  GI50: > 100 µM
[8]; [15]
  IC50: > 100 µM

## COc1ccc2cc(C(C)C(=O)[Se][Se]C(=O)C(C)c3ccc4cc(OC)ccc4c3)ccc2c1 (stereo not shown) [Compound 3, 2-(6-Methoxynaphthalen-2-yl)propanoic diselenoperoxyanhydride]
[1]; 48 h
  LD50 DU-145: 10.4 ± 2.4 µM
  TGI DU-145: 6.1 ± 0.6 µM
[1]; Homo sapiens, DU-145, 48 h
  IC50: 6.1 ± 0.6 µM
  GI50: 5 ± 0.2 µM
[2]
  IC50: 5.7 ± 0.8 µM
  GI50: 5.2 ± 0.2 µM
  TGI MDA-MB-231: 5.6 ± 0.8 µM
[3]; [10]
  GI50: 7.1 ± 0.5 µM
[3]; [11]
  IC50: 11.9 ± 1 µM
[3]; 48 h, Table S1
  TGI 184B5: 9.4 ± 0.2 µM
A549 lung cancer cells; 48 h
  IC50: > 100 µM
  IC50 A549: no activity at all
A549 lung cancer cells; Homo sapiens, A549, 48 h
  IC50: > 50 µM
A549 lung cancer cells; [12]
  GI50: 3.3 ± 0.4 µM
[4]; eight cancer cell lines, read-out: GI50 across all the cancer cell lines tested
  GI50: < 10 µM
[4]; read-out: average IC50 in prostate (DU-145 and PC-3) and breast (MDA-MB-231 and T-47D) cancer cell lines
  IC50: ~5 µM
[5]
  LD50 T-47D: 6.3 ± 0.7 µM
  IC50: 5.6 ± 0.1 µM
  GI50: 1.8 ± 0.2 µM
  TGI T-47D: 3.1 ± 0.3 µM
[6]; Homo sapiens, HCT-116, 48 h
  IC50: 9.1 ± 5.9 µM
[6]; [13]
  GI50: 9.3 ± 4.7 µM
[6]; 48 h, Table S1
  TGI HCT-116: 30.9 ± 16.7 µM
HT-29 colon cancer cells; 48 h
  IC50 HT-29: no activity at all
HT-29 colon cancer cells
  IC50: > 50 µM
HT-29 colon cancer cells; Table S1
  GI50: 6.8 ± 1.4 µM
[7]
  IC50: 5.2 ± 0.2 µM
  GI50: 4.4 ± 0.3 µM
  LD50 PC-3: 5.9 ± 0.9 µM
  TGI PC-3: 5.0 ± 0.1 µM
H1299 lung cancer cells; Homo sapiens, NCI-H1299, 48 h
  IC50: 8.1 ± 2.5 µM
H1299 lung cancer cells; [14]
  GI50: 6.7 ± 1.1 µM
[8]
  LD50 BEAS-2B: 12.3 ± 2.1 µM
  TGI BEAS-2B: 9.0 ± 1.2 µM
[8]; Homo sapiens, BEAS-2B
  GI50: 7 ± 2.5 µM
[8]; [15]
  IC50: 11.2 ± 1 µM

## CC(=O)Oc1ccccc1C(=O)[Se][Se]C(=O)c1ccccc1OC(C)=O [Compound 1, 2-Acetoxybenzoic diselenoperoxyanhydride]
[1]; 48 h
  IC50: 5 ± 0.1 µM
  LD50 DU-145: 6.1 ± 0.7 µM
  TGI DU-145: 5.1 ± 0.2 µM
[1]; Homo sapiens, DU-145, 48 h
  IC50: < 10 µM
  GI50: 4.4 ± 0.5 µM
[2]
  IC50: 18.3 ± 6.9 µM
  GI50: 6.6 ± 2.2 µM
  TGI MDA-MB-231: 15.3 ± 4.6 µM
[3]; 48 h, Table S1
  LD50 184B5: 21.1 ± 3.9 µM
  TGI 184B5: 11.3 ± 1.4 µM
[3]; [9]
  IC50: 14.4 ± 1.5 µM
[3]; [10]
  GI50: 7 ± 1.1 µM
[3]; [11]
  IC50: 14 to 19 µM
A549 lung cancer cells; 48 h
  IC50: 7 ± 1.3 µM
A549 lung cancer cells; 48 h, Table S1
  LD50 A549: 74.6 ± 5.9 µM
A549 lung cancer cells; Homo sapiens, A549, 48 h
  IC50: < 10 µM
A549 lung cancer cells; [12]
  GI50: > 100 µM
A549 lung cancer cells; [16]
  TGI A549: 26.2 ± 5.8 µM
[5]
  LD50 T-47D: 6.0 ± 1.9 µM
  IC50: 5.9 ± 1.4 µM
  GI50: 1.6 ± 0.3 µM
  TGI T-47D: 2.9 ± 0.6 µM
[6]; 48 h
  IC50: 39.2 ± 7.3 µM
[6]; 48 h, Table S1
  LD50 HCT-116: 88.0 ± 3.5 µM
  TGI HCT-116: 44.5 ± 7.1 µM
[6]; Homo sapiens, HCT-116, 48 h
  IC50: ~40 µM
[6]; [13]
  GI50: 21 ± 4 µM
HT-29 colon cancer cells
  IC50: 6.6 ± 2.2 µM
HT-29 colon cancer cells; Table S1
  GI50: 3.9 ± 0.4 µM
HT-29 colon cancer cells; [16]
  TGI HT-29: 6.2 ± 1.9 µM
[7]
  GI50: 2.8 ± 0.2 µM
  LD50 PC-3: 3.3 ± 0.4 µM
  TGI PC-3: 3.0 ± 0.3 µM
H1299 lung cancer cells; 48 h
  IC50: 8.6 ± 0.8 µM
H1299 lung cancer cells; Homo sapiens, NCI-H1299, 48 h
  IC50: < 10 µM
H1299 lung cancer cells; [14]
  GI50: 7.7 ± 1.2 µM
H1299 lung cancer cells; [16]
  TGI H1299: 9.4 ± 0.8 µM
[8]
  LD50 BEAS-2B: 17.0 ± 5.7 µM
  TGI BEAS-2B: 8.4 ± 2.4 µM
[8]; nonmalignant lung cells
  IC50: 18.5 ± 3 µM
[8]; Homo sapiens, BEAS-2B
  GI50: 3.9 ± 1.3 µM
[8]; [15]
  IC50: 14 to 19 µM
